Reference: ChEMBL document CHEMBL4609983, “Pan-specific and partially selective dye-labeled peptidic inhibitors of the polycomb paralog proteins” (Bioorg Med Chem, 2020)
One block for each compound: values may come before it. Non-standard residues stand in square brackets, D forms with d. Residues, ends and D or L forms follow the SMILES beside them. *: point of attachment. X1 = O=C(O)c1cc(NC(=S)*)ccc1-c1c2ccc(=O)cc-2oc2cc(O)ccc12; Lys(Me3) = C[N+](C)(C)CCCC[C@H](N)C(=O)O; Benzoyl(4-Br) = O=C(c1ccc(Br)cc1)*; Gly(cPent) = N[C@H](C(=O)O)C1CCCC1; Abu = CC[C@H](N)C(=O)O; βAla = NCCC(=O)O

Columns and labels:
[1] = Drug uptake in human TOV21G cells by flow cytometric analysis; type: ADME, cell-based
[2] = Drug uptake in human PC3 cells assessed as endosomal entrapment by measuring characteristic punctate dots in the cytoplasm at 10 uM by cell imaging analysis; type: ADME, cell-based; conditions: pc-3, 10 µM
[3] = target: T1, Chromobox protein homolog 2 (Homo sapiens, UniProt Q14781); test: Binding affinity to CBX2 (unknown origin) assessed as dissociation constant by fluorescence polarization analysis
T1 sequence (Q14781 whole entry): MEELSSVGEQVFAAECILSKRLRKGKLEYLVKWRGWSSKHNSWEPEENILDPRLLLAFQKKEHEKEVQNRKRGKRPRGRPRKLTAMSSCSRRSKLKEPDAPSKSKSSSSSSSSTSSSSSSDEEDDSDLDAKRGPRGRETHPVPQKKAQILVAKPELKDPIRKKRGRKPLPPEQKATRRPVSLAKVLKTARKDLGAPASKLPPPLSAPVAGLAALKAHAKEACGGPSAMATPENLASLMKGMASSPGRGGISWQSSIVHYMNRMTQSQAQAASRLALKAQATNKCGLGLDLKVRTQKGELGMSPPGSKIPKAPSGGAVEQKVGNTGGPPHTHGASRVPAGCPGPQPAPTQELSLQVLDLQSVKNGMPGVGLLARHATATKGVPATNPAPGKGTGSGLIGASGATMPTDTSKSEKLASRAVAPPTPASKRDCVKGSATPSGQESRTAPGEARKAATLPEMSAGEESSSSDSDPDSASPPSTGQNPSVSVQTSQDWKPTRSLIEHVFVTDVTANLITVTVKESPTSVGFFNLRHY

[4] = Drug uptake in nucleus of human TOV21G cells by live cell imaging analysis; type: ADME, cell-based
[5] = Drug uptake in nucleus of human PC3 cells by live cell imaging analysis; type: ADME, cell-based; conditions: pc-3
[6] = test system: TOV21G; test: Effect on cell cycle in human TOV21G cells by measuring cells distribution at S phase; type: cell-based
[7] = target: T2, Chromobox protein homolog 7 (Homo sapiens, UniProt O95931); test: Binding affinity to CBX7 (unknown origin) assessed as dissociation constant by fluorescence polarization analysis
T2 sequence (O95931 whole entry): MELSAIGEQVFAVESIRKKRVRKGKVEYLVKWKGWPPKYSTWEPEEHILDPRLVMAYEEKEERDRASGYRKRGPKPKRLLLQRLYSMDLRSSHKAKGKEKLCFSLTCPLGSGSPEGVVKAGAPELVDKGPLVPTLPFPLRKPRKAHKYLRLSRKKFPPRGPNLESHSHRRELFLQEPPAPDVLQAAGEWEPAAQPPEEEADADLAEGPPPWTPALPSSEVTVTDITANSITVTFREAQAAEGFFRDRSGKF

[8] = target: T3, Chromobox protein homolog 8 (Homo sapiens, UniProt Q9HC52); test: Binding affinity to CBX8 (unknown origin) assessed as dissociation constant by fluorescence polarization analysis
T3 sequence (Q9HC52 whole entry): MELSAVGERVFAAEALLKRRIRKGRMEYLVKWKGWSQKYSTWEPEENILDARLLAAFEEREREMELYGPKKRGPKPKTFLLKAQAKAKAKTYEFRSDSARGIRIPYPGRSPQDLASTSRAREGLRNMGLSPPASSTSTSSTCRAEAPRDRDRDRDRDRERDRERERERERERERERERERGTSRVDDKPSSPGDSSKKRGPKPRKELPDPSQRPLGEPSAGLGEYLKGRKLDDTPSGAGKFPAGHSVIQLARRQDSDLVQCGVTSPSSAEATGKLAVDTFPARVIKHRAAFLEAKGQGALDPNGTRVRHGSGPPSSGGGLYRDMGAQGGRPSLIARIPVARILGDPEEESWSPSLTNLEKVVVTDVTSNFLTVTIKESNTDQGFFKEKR

[9] = target: Chromobox protein homolog 1 (Homo sapiens, UniProt P83916); test: Binding affinity to CBX1 (unknown origin) assessed as dissociation constant by fluorescence polarization analysis
[10] = Drug uptake in human TOV21G cells assessed as endosomal entrapment by measuring characteristic punctate dots in the cytoplasm at 10 uM by cell imaging analysis; type: ADME, cell-based
[11] = target: T4, Chromobox protein homolog 6 (Homo sapiens, UniProt O95503); test: Binding affinity to CBX6 (unknown origin) assessed as dissociation constant by fluorescence polarization analysis
T4 sequence (O95503 whole entry): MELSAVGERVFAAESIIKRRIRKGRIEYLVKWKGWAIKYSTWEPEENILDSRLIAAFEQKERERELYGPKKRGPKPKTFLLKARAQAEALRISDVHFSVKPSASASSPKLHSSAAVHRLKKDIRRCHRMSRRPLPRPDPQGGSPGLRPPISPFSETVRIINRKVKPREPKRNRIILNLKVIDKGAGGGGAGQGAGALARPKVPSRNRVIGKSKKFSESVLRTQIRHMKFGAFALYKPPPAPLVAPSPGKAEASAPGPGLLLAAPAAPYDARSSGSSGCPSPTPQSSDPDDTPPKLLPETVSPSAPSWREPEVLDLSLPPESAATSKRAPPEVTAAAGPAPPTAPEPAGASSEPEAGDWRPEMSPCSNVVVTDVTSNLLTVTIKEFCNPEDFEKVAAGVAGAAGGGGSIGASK

[12] = test system: TOV21G; test: Effect on cell cycle in human TOV21G cells by measuring cells distribution at G1 phase; type: cell-based
[13] = target: T5, E3 SUMO-protein ligase CBX4 (Homo sapiens, UniProt O00257); test: Binding affinity to CBX4 (unknown origin) assessed as dissociation constant by fluorescence polarization analysis
T5 sequence (O00257 whole entry): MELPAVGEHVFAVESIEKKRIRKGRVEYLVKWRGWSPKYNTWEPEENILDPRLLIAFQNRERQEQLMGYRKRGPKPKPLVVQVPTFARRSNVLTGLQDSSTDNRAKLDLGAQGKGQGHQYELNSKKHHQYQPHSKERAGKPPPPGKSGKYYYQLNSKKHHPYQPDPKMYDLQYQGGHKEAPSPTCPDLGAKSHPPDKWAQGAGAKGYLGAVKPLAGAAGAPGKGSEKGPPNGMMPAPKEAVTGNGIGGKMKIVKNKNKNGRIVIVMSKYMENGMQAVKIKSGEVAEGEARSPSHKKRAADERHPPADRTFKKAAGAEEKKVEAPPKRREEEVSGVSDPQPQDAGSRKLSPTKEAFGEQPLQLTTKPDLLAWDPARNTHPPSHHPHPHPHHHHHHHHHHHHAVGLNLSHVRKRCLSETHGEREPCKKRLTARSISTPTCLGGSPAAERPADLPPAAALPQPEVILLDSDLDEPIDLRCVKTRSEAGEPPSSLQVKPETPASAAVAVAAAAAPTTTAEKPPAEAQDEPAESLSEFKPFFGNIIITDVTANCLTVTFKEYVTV

[14] = test system: TOV21G; test: Effect on cell cycle in human TOV21G cells by measuring cells distribution at G2/M phase; type: cell-based
[15] = Drug uptake in cytoplasm of human TOV21G cells by live cell imaging analysis; type: ADME, cell-based
[16] = test system: TOV21G; test: Effect on cell cycle in human TOV21G cells by measuring cells distribution at G0 phase; type: cell-based
[17] = Drug uptake in cytoplasm of human PC3 cells by live cell imaging analysis; type: ADME, cell-based; conditions: pc-3
[18] = target: T4, Chromobox protein homolog 6; test: Inhibition of CBX6 (unknown origin) assessed as […] by competitive FP assay
[19] = species on record: Homo sapiens; test: Selectivity ratio of IC50 for CBX4 (unknown origin) to IC50 for CBX7 (unknown origin)
[20] = target: T3, Chromobox protein homolog 8; test: Inhibition of CBX8 (unknown origin) assessed as […] by competitive FP assay
[21] = species on record: Homo sapiens; test: Selectivity ratio of IC50 for CBX7 (unknown origin) to IC50 for CBX8 (unknown origin)
[22] = target: T2, Chromobox protein homolog 7; test: Inhibition of CBX7 (unknown origin) assessed as […] by competitive FP assay

Chromobox protein homolog 1, sequence (P83916 whole entry): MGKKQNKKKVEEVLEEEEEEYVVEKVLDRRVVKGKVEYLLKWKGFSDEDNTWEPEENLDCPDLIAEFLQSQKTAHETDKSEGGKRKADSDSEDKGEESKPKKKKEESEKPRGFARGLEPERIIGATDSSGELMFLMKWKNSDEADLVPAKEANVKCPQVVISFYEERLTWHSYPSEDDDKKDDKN

Drug uptake [1]: Active
Drug uptake [2]: Active
Kd [3]: 3100 nM
Drug uptake [4]: Not Active
Drug uptake [5]: Not Active
Kd [7]: 1600 nM
Kd [8]: 1700 nM
Kd [9]: 47000 nM
Drug uptake [10]: Active
Kd [11]: 1100 nM
Kd [13]: 1700 nM
Drug uptake [15]: Not Active
Drug uptake [17]: Not Active
SMILES: CC(C)C[C@H](NC(=O)[C@H](C)NC(=O)[C@H](Cc1ccccc1)NC(=O)[C@H](Cc1ccccc1)NC(=O)CCNC(=S)Nc1ccc(-c2c3ccc(=O)cc-3oc3cc(O)ccc23)c(C(=O)O)c1)C(=O)N[C@@H](CCCC[N+](C)(C)C)C(=O)N[C@@H](CO)C(N)=O ({X1-βAla}-FFAL[Lys(Me3)]S-NH2)
Activity [6]: Non-Toxic
Activity [12]: Non-Toxic
Activity [14]: Non-Toxic
Activity [16]: Non-Toxic

IC50 [18]: 2800 nM
Ratio IC50 [19]: 10
IC50 [20]: 3800 nM
Ratio IC50 [21]: 2
IC50 [22]: 8300 nM
SMILES: CC[C@H](NC(=O)[C@H](Cc1ccccc1)NC(=O)c1ccc(Br)cc1)C(=O)N[C@H](C(=O)N[C@@H](CCCC[N+](C)(C)C)C(=O)N[C@@H](CO)C(=O)N[C@@H](CCC(=O)O)C(N)=O)C1CCCC1 ({Benzoyl(4-Br)}-F[Abu][Gly(cPent)][Lys(Me3)]SE-NH2)
